Assay results: US10633371B2, “EZH2 inhibitors and uses thereof” (Dana-Farber Cancer Institute, Inc., priority 2016, dated 2020)

Tests used:
[1] = target: EZH2 (Homo sapiens, UniProt Q15910); experiment: Inhibitory activity and time dependence against EZH2 (FIG. 2A); type: biochemical; conditions: result in words
From the text: (§1) As depicted in FIG. 2A, Compounds EZ-40, EZ-49, EZ-51, EZ-52, EZ-53, and JQ-80 were profiled for inhibitory activity and time dependence against EZH1 and EZH2.

[2] = target: EZH1 (Homo sapiens, UniProt Q92800); experiment: Inhibitory activity and time dependence against EZH1 (FIG. 2A); type: biochemical; conditions: result in words
From the text: as §1

EZH2, sequence (Q15910 whole entry): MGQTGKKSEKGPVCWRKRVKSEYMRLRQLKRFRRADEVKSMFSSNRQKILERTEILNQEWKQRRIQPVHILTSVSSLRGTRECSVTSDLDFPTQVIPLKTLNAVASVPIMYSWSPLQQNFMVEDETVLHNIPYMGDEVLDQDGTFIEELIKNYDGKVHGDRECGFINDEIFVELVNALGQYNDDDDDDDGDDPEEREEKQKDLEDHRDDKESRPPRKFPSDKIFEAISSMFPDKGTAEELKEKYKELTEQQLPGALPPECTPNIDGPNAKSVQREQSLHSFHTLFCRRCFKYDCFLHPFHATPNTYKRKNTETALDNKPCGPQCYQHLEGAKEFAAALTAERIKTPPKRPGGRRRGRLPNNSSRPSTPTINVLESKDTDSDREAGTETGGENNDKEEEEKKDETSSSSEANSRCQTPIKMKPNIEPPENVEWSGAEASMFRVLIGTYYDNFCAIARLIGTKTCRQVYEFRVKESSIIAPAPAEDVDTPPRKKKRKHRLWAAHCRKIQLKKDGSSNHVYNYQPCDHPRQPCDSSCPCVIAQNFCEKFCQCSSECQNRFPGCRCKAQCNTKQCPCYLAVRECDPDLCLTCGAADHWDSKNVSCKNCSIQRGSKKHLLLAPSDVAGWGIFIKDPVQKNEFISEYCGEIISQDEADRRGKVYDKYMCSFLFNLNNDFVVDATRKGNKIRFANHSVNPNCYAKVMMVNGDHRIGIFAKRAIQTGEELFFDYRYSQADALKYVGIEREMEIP
EZH2, sequence (O75530 whole entry partner): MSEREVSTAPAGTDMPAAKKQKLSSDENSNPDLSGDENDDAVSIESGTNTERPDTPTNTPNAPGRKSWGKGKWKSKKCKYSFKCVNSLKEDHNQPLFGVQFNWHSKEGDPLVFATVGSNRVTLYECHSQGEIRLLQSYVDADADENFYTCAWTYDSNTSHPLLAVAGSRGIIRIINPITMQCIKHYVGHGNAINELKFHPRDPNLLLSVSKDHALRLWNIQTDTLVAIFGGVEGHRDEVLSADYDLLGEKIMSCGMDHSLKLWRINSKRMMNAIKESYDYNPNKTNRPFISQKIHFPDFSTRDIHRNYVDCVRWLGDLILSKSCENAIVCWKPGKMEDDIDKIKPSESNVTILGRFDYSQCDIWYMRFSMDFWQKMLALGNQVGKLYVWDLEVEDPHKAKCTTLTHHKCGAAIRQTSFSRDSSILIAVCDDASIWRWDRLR
EZH2, sequence (Q15022 whole entry partner): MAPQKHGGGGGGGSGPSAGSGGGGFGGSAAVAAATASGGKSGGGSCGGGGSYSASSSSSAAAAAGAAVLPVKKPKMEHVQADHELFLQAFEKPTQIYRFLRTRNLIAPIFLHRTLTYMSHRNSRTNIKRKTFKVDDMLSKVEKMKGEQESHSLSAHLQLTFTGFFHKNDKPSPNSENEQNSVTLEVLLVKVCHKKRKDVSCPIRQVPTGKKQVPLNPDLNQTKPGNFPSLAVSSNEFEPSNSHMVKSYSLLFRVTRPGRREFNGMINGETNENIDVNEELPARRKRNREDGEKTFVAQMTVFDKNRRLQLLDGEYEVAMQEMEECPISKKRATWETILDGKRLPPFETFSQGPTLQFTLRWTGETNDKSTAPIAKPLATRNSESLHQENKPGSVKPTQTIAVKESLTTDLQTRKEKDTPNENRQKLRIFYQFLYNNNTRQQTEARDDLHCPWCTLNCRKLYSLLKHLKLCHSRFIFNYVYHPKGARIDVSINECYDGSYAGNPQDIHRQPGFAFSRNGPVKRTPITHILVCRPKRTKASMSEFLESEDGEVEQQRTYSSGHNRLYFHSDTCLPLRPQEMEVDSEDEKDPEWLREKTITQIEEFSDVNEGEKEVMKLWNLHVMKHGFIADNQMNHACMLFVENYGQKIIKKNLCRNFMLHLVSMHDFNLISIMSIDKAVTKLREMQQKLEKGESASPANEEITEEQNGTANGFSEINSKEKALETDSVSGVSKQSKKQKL
EZH1, sequence (Q92800 whole entry): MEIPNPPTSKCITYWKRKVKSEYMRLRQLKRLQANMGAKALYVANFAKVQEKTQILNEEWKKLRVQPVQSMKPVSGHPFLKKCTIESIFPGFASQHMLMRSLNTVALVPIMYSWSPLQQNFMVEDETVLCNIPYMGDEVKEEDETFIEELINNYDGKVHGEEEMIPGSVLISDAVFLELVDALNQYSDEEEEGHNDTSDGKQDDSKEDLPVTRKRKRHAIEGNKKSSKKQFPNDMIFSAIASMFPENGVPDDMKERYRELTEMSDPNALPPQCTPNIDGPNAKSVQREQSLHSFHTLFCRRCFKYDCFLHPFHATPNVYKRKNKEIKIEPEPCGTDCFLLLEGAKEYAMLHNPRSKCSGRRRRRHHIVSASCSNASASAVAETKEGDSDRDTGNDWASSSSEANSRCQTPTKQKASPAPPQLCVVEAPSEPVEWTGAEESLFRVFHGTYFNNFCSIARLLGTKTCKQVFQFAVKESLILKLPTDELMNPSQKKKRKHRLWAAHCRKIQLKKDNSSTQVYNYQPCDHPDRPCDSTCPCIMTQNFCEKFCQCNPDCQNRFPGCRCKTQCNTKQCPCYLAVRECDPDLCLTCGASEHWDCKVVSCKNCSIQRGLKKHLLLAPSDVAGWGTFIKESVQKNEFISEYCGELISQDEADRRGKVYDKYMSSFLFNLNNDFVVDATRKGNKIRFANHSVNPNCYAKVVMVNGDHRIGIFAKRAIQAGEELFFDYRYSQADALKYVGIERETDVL
EZH1, sequence (O75530 whole entry partner): as the sequence (O75530 whole entry partner) above
EZH1, sequence (Q15022 whole entry partner): as the sequence (Q15022 whole entry partner) above

inhibitory activity [1]: high potency
mode of inhibition [1]: irreversible inhibitor
time dependence [1]: time dependency
inhibitory activity [2]: high potency
mode of inhibition [2]: irreversible inhibitor
time dependence [2]: time dependency
SMILES: C=CC(=O)N(c1cc(-c2ccc(N3CCN(C)CC3)nc2)cc(C(=O)NCc2c(CCC)cc(C)[nH]c2=O)c1C)C1CCOCC1 [EZ-53]
